Test results from patent US20040009273A1, “Method for the long-term preservation of meat and the meat process thereby” (priority 1996, published 2004).

Experiments:
Assay type in all cases: cell-based
[1] = tested on: bacteria present on the surface of meat samples; experiment: Bacterial growth under air, CO and N2 atmospheres, non-selective agar plates (Bactoagar); details: 4 g meat samples flushed with gas, 24 h at 15±3° C.; plates overnight at 37° C.
Experimental: (§1) Meat samples weighing 4.00+0.18 grams, were treated by flushing with either air, CO, or N2. After twenty-four hours of storage at room temperature (15±3° C.) each of the treated meat samples was soaked in sterile 0.15M sodium chloride (1 ml per 2 grams of treated meat) for ninety minutes to extract any bacteria present on the surface of individual samples. Aliquots of serial dilutions of the extracts were plated onto non-selective agar plates (Bactoagar, Difco) and on Gram negative selective plates (MacConkey, Difco). All the plates were incubated over night at 37° C. to allow bacterial growth.

[2] = tested on: Gram negative bacteria on the surface of meat samples; experiment: Bacterial growth under air, CO and N2 atmospheres, Gram negative selective plates (MacConkey); details: 4 g meat samples flushed with gas, 24 h at 15±3° C.; MacConkey plates overnight at 37° C.
Experimental: as §1

E coli = experiment: Growth of inoculated E coli on meat under defined atmospheres; details: beef; high CO (95-100%) or low (10%) CO versus untreated
Experimental: (§2) Studies were carried out comparing growth of inoculated pathogenic bacteria on fresh meat under three atmospheres. Air and two CO containing modified atmospheres: high CO (95-100%) and low (10%) CO. In low CO MA CO was replaced by an inert gas, nitrogen. Note that in most experiments the CO untreated control was the same for both modified atmospheres. Experiments with E coli were carried out on different meat controls.

Pseudomonas fluorescence = experiment: Growth of inoculated Pseudomonas fluorescence on meat under defined atmospheres; details: beef and poultry; high CO (95-100%) or low (10%) CO versus untreated
Experimental: as §2

Staphylococcus aures = experiment: Growth of inoculated Staphylococcus aures on meat under defined atmospheres; details: beef; high CO (95-100%) versus untreated
Experimental: as §2

Listeria monocytogenes = experiment: Growth of inoculated Listeria monocytogenes on meat under defined atmospheres; details: beef and poultry; high CO (95-100%) or low (10%) CO versus untreated
Experimental: as §2

Clostridium prefringens = experiment: Growth of inoculated Clostridium prefringens on meat under defined atmospheres; details: beef and poultry; high CO (95-100%) or low (10%) CO versus untreated
Experimental: as §2

Salmonella Typhimirium = experiment: Growth of inoculated Salmonella Typhimirium on meat under defined atmospheres; details: beef; high CO (95-100%) or low (10%) CO versus untreated
Experimental: as §2

Compound | No of calories, Grown on bactoagar (bacterial colony counts per gram of meat, mean±SD) [1] | No of calories, Gram negative (bacterial colony counts per gram of meat, mean±SD) [2] | growth of E coli (E coli) | growth of Pseudomonas fluorescence (Pseudomonas fluorescence) | growth of Staphylococcus aures (Staphylococcus aures) | growth of Listeria monocytogenes (Listeria monocytogenes) | growth of Clostridium prefringens (Clostridium prefringens) | growth of Salmonella Typhimirium (Salmonella Typhimirium)
[C-]#[O+] [CO, carbon monoxide] | (0.29 ± 0.01) × 10^6 per gram of meat | 0.02 ± 0.01) × 10^6 per gram of meat | inhibited | inhibited | inhibited | inhibited | inhibited | inhibited
N#N [N2, nitrogen, reference compound] | (1.63 ± 0.3) × 10^6 per gram of meat | (0.46 + 0.25) × 10^6 per gram of meat | – | – | – | – | – | –
